In patent publication US11459315B2, “Modulators of methyl modifying enzymes, compositions and uses thereof” (Constellation Pharmaceuticals, Inc., priority 2017, dated 2022):
Where two headings read alike, the source gives them in different places.

Legend:
PRC2 containing wt EZH2 = PRC2 containing wt EZH2 (Homo sapiens (Human), UniProt Q15910); assay: EZH2 biochemical assay (IC50), 3H-SAM incorporation into biotinylated H3 peptide
Procedure: EZH2 biochemical assay (IC50): Compound potencies were assessed through incorporation of ^3H-SAM into a biotinylated H3 peptide. Specifically, 30 pM PRC2 containing wt EZH2 (pentameric complex prepared in-house) was pre-incubated with 450 nM SAM, 450 nM ^3H-SAM, 2 μM H3K27me3 activating peptide (H2N-[…](Kme3)[…]-amide) and compounds (as 10 point duplicate dose response titrations in DMSO, final assay 0.8% DMSO (v/v)) for 3-5 h in 50 mM Tris (pH 8.5), 1 mM DTT, 0.07 mM Brij-35, 0.1% BSA, and 0.8% DMSO in a total volume of 12.5 μl. Reaction was initiated with biotinylated H3 substrate peptide (H2N-[…](Kme1)[…]-NTPEGBiot) as a 2 μM stock in 12.5 μl of buffer and allowed to react at room temperature for 18-22 h. Quenching was accomplished by addition of 20 μl of STOP solution (50 mM Tris (pH 8.5), 200 mM EDTA, 2 mM SAH). 35 μl of the quenched solution was transferred to streptavidin coated FlashPlates (PerkinElmer), incubated 1-2 h, washed, and read in a TopCount Reader (PerkinElmer). IC50s were calculated in Genedata Screener using non-linear least square four parameter fits, where the four parameters were IC50, Hill slope, pre-transitional baseline (0% INH), and post-transitional baseline (100% INH).
IC50 values are reported as follows: “A” indicates an IC50 value of less than 0.5 nM; “B” indicates an IC50 value of 0.5 nM to 5 nM; “C” indicates an IC50 value of greater than 5 nM for each enzyme; and “ND” is not determined.

[1] = tested on: H3K27me3 mark in HeLa cells (EZH2); assay: H3K27me3 Alpha Hela Assay (AlphaLISA); type: cell-based; details: HeLa cells, 72 hrs, read-out: EZH2 Cell H3K27me3 Alpha HeLa (EC50 K27me3)
Procedure: H3K27me3 Alpha Hela Assay (AlphaLISA). Ten different doses of each test compound (in a series of 3-fold dilutions) were plated in duplicate 384-well tissue culture treated plates (Catalog #6007680; Perkin Elmer, Waltham, Mass.). Hela cells grown in culture were trypsinized and counted using a Countess® cell counter (Catalog #C10281; Life Technologies, Grand Island, N.Y.). Cell were diluted to 67,000 cells per mL in 10% DMEM (Catalog #10569-010 Life Technologies, Grand Island, N.Y.) and 15 μL (1,000 cells) were plated into each well using the Biotek MicroFlo™ Select Dispenser (BioTek Instruments, Inc. Vermont, USA),) of the 384-well plate. Plates were incubated at 37° C./5% CO2 for 72 hrs. One of the duplicate plates was processed for HeLa assay and the other for viability.
5 μL of Cell-Histone Lysis buffer (1×) (Catalog #AL009F1 Perkin Elmer; Waltham, Mass.) per well was added to the plate processed for AlphaLISA and the plate was incubated at RT for 30 minutes on a plate shaker with low speed (Model #4625-Q Thermo Scientific; Waltham, Mass.). Then, 10 μL per well Histone Extraction buffer (catalog #AL009F2; Perkin Elmer; Waltham, Mass.) was added and the plate further incubated at RT for 20 min on plate shaker with low speed. Next, 10 μL of 5× mix of anti-K27me3 acceptor beads plus Biotinylated anti-Histone H3 (C-ter) Antibody (diluted to 3 nM final) (Catalog #AL118 Perkin Elmer; Waltham, Mass.) was added in each well. Dilution of the acceptor beads and anti-Histone H3 was done in 1× Histone Detection buffer (Catalog #AL009F3 Perkin Elmer; Waltham, Mass.) which was produced by diluting the 10× stock provided. The plate was sealed with an aluminum plate sealer and incubated at 23° C. for 60 min. Next, 10 μL 5× solution of Streptavidin Donor beads were added (Catalog #6760002 Perkin Elmer; Waltham, Mass.) (20 μg/mL final in 1× Histone Detection Buffer), =plate was sealed with Aluminum plate sealer and incubated at 23° C. for 30 min. The plates were then read using an EnVision-Alpha Reader (model #2104 Perkin Elmer; Waltham, Mass.).
Data from both assays was analyzed using Genedata (Basel, Switzerland). Data files were imported to Genedata and assay conditions were specified. A unique Analysis ID was created and the data files analysed to measure dose-dependent inhibition of H3K27me3 mark and cell viability respectively. Readout of DMSO wells were used to normalize the data. Resulting curves were fitted using Smart fit application (Genedata; Basel, Switzerland). The data was checked for quality, validated and integrated in excel format using Stardrop (Optibruim, Cambridge, UK).
EC50 values are reported as follows: “A” indicates an EC50 value of less than 10 nM; “B” indicates an EC50 value of 10 nM to 100 nM; “C” indicates an EC50 value of greater than 100 nM; and “ND” is not determined.

[2] = EZH2 (IC50), 30 pM PRC2 containing wt EZH2; 3-5 h pre-incubation
[3] = read-out: EZH2 (IC50); 30 pM PRC2 containing wt EZH2; 3-5 h pre-incubation
[4] = 30 pM PRC2 containing wt EZH2; 3-5 h pre-incubation; read-out: EZH2 (IC50)

PRC2 containing wt EZH2, sequence (Q15910 whole entry): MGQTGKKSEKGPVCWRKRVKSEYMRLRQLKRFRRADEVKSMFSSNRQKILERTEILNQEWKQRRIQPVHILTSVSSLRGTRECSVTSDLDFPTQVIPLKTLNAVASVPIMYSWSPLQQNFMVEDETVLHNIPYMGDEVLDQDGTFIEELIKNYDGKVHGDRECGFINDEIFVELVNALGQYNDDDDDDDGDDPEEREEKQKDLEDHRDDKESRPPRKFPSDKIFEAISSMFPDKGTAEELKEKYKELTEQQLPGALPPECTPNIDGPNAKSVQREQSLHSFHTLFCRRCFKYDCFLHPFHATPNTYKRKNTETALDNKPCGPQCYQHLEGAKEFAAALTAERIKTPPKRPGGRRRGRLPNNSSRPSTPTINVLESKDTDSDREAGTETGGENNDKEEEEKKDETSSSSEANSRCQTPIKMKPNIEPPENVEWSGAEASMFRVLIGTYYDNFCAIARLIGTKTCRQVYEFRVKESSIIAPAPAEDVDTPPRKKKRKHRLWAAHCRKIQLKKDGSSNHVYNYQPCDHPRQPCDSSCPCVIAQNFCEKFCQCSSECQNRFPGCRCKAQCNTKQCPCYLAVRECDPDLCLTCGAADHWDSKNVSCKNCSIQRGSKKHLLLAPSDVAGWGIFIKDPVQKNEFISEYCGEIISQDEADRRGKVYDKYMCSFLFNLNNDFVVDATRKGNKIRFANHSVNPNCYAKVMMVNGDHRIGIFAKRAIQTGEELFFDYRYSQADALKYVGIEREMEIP
PRC2 containing wt EZH2, sequence (O75530 whole entry partner): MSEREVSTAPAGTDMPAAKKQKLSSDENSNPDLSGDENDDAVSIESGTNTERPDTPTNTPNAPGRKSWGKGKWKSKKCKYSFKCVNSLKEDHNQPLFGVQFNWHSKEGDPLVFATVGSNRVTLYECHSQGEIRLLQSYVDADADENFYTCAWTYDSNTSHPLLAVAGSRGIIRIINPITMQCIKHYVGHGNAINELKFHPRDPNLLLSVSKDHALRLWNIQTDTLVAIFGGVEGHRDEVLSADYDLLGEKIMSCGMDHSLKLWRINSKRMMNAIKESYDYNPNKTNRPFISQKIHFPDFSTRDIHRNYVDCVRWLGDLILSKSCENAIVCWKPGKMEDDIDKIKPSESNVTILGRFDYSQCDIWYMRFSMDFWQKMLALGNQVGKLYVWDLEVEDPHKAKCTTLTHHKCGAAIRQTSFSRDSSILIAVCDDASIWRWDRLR
PRC2 containing wt EZH2, sequence (Q15022 whole entry partner): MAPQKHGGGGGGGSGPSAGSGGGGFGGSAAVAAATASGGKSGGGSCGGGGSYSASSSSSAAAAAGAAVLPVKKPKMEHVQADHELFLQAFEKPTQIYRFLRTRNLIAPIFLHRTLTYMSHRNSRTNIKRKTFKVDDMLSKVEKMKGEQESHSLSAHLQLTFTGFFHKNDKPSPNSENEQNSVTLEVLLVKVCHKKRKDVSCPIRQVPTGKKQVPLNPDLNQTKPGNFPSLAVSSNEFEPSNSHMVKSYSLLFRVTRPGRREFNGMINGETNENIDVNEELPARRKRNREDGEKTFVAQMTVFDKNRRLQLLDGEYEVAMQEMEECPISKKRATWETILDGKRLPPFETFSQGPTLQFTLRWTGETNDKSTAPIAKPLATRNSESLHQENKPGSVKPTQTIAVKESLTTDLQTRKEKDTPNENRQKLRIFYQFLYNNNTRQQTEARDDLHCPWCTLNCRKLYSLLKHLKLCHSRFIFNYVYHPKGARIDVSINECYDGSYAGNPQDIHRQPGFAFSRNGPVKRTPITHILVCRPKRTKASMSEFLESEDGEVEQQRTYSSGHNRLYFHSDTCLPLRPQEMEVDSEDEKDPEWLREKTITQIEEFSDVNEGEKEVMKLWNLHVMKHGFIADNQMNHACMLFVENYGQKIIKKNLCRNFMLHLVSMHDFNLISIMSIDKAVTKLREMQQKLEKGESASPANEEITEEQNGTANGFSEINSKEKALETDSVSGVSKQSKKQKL
PRC2 containing wt EZH2, sequence (Q09028 whole entry partner): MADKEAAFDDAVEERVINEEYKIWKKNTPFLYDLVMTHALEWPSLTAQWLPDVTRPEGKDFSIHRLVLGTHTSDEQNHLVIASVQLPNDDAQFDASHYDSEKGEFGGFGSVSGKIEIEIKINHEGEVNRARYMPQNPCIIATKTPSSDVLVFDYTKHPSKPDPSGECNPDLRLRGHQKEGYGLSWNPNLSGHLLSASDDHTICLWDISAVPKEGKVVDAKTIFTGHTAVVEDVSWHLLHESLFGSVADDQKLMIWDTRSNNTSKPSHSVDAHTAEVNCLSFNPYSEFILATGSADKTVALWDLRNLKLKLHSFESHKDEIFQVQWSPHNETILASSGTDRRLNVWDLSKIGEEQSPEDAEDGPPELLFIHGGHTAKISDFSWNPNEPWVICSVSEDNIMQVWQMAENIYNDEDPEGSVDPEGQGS
PRC2 containing wt EZH2, sequence (Q6ZN18 whole entry partner): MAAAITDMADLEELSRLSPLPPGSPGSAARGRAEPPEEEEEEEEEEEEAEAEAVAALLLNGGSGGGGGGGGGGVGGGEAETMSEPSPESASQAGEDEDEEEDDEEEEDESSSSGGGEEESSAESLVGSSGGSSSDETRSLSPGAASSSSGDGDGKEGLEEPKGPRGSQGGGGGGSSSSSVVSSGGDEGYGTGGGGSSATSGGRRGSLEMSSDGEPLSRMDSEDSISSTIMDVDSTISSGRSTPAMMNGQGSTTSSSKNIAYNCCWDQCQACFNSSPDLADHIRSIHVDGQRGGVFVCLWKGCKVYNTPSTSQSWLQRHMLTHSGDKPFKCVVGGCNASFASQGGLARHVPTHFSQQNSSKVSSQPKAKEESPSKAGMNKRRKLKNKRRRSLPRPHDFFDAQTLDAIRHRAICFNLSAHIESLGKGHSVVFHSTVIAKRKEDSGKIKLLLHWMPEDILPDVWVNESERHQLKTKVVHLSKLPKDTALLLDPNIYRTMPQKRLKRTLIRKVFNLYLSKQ

Row | SMILES | IC50 (PRC2 containing wt EZH2; [2]) [nM] | EC50 ([1]; Homo sapiens, HeLa, 72 h) [nM] | IC50 (PRC2 containing wt EZH2; [3]) [nM] | EC50 [1] [nM] | IC50 (PRC2 containing wt EZH2; [4]) [nM]
1 | CSc1cc(C)[nH]c(=O)c1CNC(=O)c1c(C)n([C@H](C)C2CCC(O)CC2)c2ccccc12 (single isomer, unassigned) [19 (isomer 1)] | < 0.5 | < 10 |  |  | 
2 | CSc1cc(C)[nH]c(=O)c1CNC(=O)c1c(C)n([C@H](C)C2CCC(O)CC2)c2ccccc12 (single isomer, unassigned) [19 (isomer 2)] |  |  | < 0.5 | < 10 | 
3 | CSc1cc(C)[nH]c(=O)c1CNC(=O)c1c(C)n([C@H](C)C2CCC(N3CC(OC(F)F)C3)CC2)c2ccccc12 (single isomer, unassigned) [20 (isomer 1)] |  | < 10 |  |  | < 0.5
4 | CSc1cc(C)[nH]c(=O)c1CNC(=O)c1c(C)n([C@H](C)C2CCC(N3CC(OC(F)F)C3)CC2)c2ccccc12 (single isomer, unassigned) [20 (isomer 2)] |  |  |  | 10 to 100 | < 0.5
5 | CSc1cc(C)[nH]c(=O)c1CNC(=O)c1c(C)n([C@H](C)C2CCC(N3CC(OC(F)(F)F)C3)CC2)c2ccccc12 (single isomer, unassigned) [21 (isomer 1)] |  | < 10 |  |  | < 0.5
6 | CSc1cc(C)[nH]c(=O)c1CNC(=O)c1c(C)n([C@H](C)C2CCC(N3CC(OC(F)(F)F)C3)CC2)c2ccccc12 (single isomer, unassigned) [21 (isomer 2)] |  |  |  | 10 to 100 | < 0.5
7 | CSc1cc(C)[nH]c(=O)c1CNC(=O)c1c(C)n([C@H](C)C2CCC(C)(O)CC2)c2ccccc12 (single isomer, unassigned) [22 (isomer 1)] | < 0.5 | < 10 |  |  | 
8 | CSc1cc(C)[nH]c(=O)c1CNC(=O)c1c(C)n([C@H](C)C2CCC(C)(O)CC2)c2ccccc12 (single isomer, unassigned) [22 (isomer 2)] |  |  | < 0.5 | < 10 | 
9 | CSc1cc(C)[nH]c(=O)c1CNC(=O)c1c(C)n([C@H](C)C2CCC(N3CC(F)(F)C3)CC2)c2ccccc12 (single isomer, unassigned) [23 (isomer 1)] | 0.5 to 5 | 10 to 100 |  |  | 
10 | CSc1cc(C)[nH]c(=O)c1CNC(=O)c1c(C)n([C@H](C)C2CCC(N3CC(F)(F)C3)CC2)c2ccccc12 (single isomer, unassigned) [23 (isomer 2)] | < 0.5 |  |  | < 10 | 
11 | CSc1cc(C)[nH]c(=O)c1CNC(=O)c1c(C)n([C@H](C)C2CCC(N3CC(F)C3)CC2)c2ccccc12 (single isomer, unassigned) [24 (isomer 1)] | < 0.5 | < 10 |  |  | 
12 | CSc1cc(C)[nH]c(=O)c1CNC(=O)c1c(C)n([C@H](C)C2CCC(N3CC(F)C3)CC2)c2ccccc12 (single isomer, unassigned) [24 (isomer 2)] |  |  | < 0.5 | < 10 | 
13 | CSc1cc(C)[nH]c(=O)c1CNC(=O)c1c(C)n([C@H](C)[C@H]2CC[C@H](N3CC(OC(F)F)C3)CC2)c2ncccc12 (single isomer, unassigned) [27 (isomer 1)] |  | < 10 |  |  | < 0.5
14 | CSc1cc(C)[nH]c(=O)c1CNC(=O)c1c(C)n([C@H](C)C2CCC(N3CC(OC4CC4)C3)CC2)c2ncc(F)cc12 (single isomer, unassigned) [28 (isomer 1)] |  | < 10 |  |  | < 0.5
